Test [1] deals with T1, COX-2 enzyme (Homo sapiens, UniProt P35354).
T1 sequence (P35354 18-604): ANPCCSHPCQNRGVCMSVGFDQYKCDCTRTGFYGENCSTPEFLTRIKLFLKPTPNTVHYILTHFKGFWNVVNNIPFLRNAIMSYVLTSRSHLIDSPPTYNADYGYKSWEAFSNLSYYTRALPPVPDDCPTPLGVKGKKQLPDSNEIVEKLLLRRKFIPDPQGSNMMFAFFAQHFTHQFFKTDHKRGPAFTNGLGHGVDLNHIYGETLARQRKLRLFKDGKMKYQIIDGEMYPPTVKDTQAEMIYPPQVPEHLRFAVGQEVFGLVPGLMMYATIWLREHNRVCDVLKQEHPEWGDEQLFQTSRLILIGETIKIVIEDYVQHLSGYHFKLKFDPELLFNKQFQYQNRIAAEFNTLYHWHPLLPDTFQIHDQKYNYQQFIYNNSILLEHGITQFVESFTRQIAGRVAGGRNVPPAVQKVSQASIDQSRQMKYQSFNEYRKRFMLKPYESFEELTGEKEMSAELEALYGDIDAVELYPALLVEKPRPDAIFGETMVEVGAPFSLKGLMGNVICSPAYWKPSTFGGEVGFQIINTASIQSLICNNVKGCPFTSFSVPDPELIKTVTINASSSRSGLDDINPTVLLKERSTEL
The test is described as follows: biochemical. Type of test: biochemical. As to conditions: three replicates.
Procedure: All in vitro determinations were performed in triplicate and reported as mean ± standard deviation. The IC50 values were determined by transforming the concentrations to logarithmic form and applying a non-linear regression equation for inhibitors (log inhibitor) versus the normalized response-variable slope equation. In vitro studies were analyzed using one-way ANOVA and Tukey’s test, with p values under < 0.05 regarded as significant. […] All figures and statistical analyses were generated with GraphPad Prism version 8.0® for Windows (GraphPad Software, San Diego, California USA).
The inhibitory activity of the tested samples against COX-2 enzyme was determined colorimetrically ^6. Celecoxib was used as a reference drug.

The target of test [2] is T2, 5-LOX (Homo sapiens, UniProt P09917).
T2 sequence (P09917 1-674): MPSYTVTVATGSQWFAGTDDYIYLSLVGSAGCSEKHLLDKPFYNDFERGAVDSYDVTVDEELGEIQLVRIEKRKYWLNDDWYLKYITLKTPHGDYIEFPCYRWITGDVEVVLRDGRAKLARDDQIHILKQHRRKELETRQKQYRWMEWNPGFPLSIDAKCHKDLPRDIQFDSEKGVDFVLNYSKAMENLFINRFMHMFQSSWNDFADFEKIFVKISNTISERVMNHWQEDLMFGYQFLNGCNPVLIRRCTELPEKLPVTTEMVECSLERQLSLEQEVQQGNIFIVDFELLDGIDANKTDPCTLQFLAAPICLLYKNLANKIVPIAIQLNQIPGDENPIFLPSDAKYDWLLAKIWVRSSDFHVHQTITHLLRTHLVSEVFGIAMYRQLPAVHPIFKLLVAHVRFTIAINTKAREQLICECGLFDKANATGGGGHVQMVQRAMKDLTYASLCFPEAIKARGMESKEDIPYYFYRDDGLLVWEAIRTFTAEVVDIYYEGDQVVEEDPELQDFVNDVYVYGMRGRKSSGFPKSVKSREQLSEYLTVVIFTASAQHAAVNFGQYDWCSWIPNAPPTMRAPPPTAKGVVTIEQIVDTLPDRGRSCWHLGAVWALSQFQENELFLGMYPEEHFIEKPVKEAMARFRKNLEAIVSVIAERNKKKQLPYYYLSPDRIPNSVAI
The test is described as follows: In vitro lipoxygenase (5-LOX) inhibitory activity. Type of test: biochemical. As to conditions: three replicates.
Procedure: All in vitro determinations were performed in triplicate and reported as mean ± standard deviation. The IC50 values were determined by transforming the concentrations to logarithmic form and applying a non-linear regression equation for inhibitors (log inhibitor) versus the normalized response-variable slope equation. […] All figures and statistical analyses were generated with GraphPad Prism version 8.0® for Windows (GraphPad Software, San Diego, California USA).
The 5-LOX inhibitory activity was determined according to a previous method ^7. […] The IC50 of each tested sample was calculated.

The test system of test [3] is cerebral cortex and hippocampus of MSG-treated rats. The test is described as follows: Brain histopathology (H&E) in MSG-induced neurotoxicity in rats. Type of test: in vivo, Wistar rats. The following applies: standard 30 mg/kg orally, 14 days.
Procedure: One day post the last dose, rats were anesthetized using ketamine 90 mg i.p and Blood was drawn from the Orbital sinus[22] followed by euthanizing of all rats[22]. […] The whole brains were expunged, washed with cold saline, wiped with filter paper, and split into two portions(hemispheres): one hemisphere was used for histopathological examinations following formalin fixation, however the other hemisphere was snap-frozen in liquid nitrogen and kept at − 80 °C to be used for biochemical assessment (MDA, GSH and TNF-α) and for RNA extraction. Samples were assayed in triplicates[2].
Brain specimens were preserved in 10% neutral buffered formalin followed by processing in increasing concentrations of ethanol and xylene. […]
Test [4] deals with Tumor necrosis factor alpha. The test is described as follows: TNF-α immunohistochemistry in cerebral cortex, MSG-induced neurotoxicity in rats. Type of test: in vivo, Wistar rats. As to conditions: standard 30 mg/kg orally, 14 days. As to the method:
Sixty-three rats were randomly allocated into nine experimental groups (n = 7): Control Group; served as negative control that received distilled water (DW) at the volume of 1 ml/rat orally via an intragastric tube once a day for 14 days. MSG Group, served as control positive where rats received DW at the volume of 0.5 mL/rats orally + 2 g/kg weight MSG dissolved in normal saline at the volume of 0.5 mL/rats orally via an intragastric tube once a day for 14 days[21]. Treated groups received MSG same way as MSG group along with various treatments as following: AS 200, 400 Groups; received Achillea santolina methanolic extract at doses of 200, 400 mg/kg, respectively. MF 200,400; received methylene chloride fraction of Achillea santolina extract with the same two doses and volume suspended in DW, BF 200, 400 received butanol fraction of Achillea santolina extract with the same two doses and volume suspended in DW, and standard group (Std): received Dextromethorphan 30 mg/kg at the volume of 0.5 mL/rats orally.
Tumor necrosis factor alpha was detected in paraffin embedded tissue by immunoperoxidase technique. Briefly, tissue sections were deparaffinized and then incubated in citrate buffer PH 6 for antigen retrieval. […] Area percent of positive staining was measured by Image J software in 3 sections/ group at 200X magnification.

The values below come from publication PMC12062363, “Phytochemical analysis and neuroprotective potential of Achillea santolina L. fractions” (Scientific Reports, 2025).

Regarding `O=c1cc(-c2ccc(O)cc2)oc2cc(O)c([C@@H]3O[C@H](CO)[C@@H](O)[C@H](O)[C@H]3O)c(O)c12` [Isovitexin, Apigenin 6-C-β-glucopyranoside], the “COX-2 inhibitory activity IC50” value in test [1] is reported as “most powerful”. In addition, the “5-LOX inhibitory potential IC50” value in test [2] was “highest inhibitory potential”. For the compound `O=c1c(O[C@@H]2O[C@H](CO)[C@@H](O)[C@H](O)[C@H]2O)c(-c2ccc(O)cc2)oc2cc(O)cc(O)c12` [Kaempferol-3-O-glucoside, Kaempferol 3-O-β-glucopyranoside], the IC50 in test [2] (read-out: 5-LOX inhibitory potential IC50) was 6.28 ± 0.16 µM.

For the compound `O=c1cc(-c2ccc(O)c(O)c2)oc2cc(O)cc(O)c12` [Luteolin], the IC50 in test [1] (read-out: COX-2 inhibitory activity IC50) was 12.04 ± 0.08 µM. For the compound `COc1ccc2c(c1)[C@]13CCCC[C@@H]1[C@H](C2)N(C)CC3` [dextromethorphan, Dextromethorphan], in test [3], the “neuronal degeneration and gliosis, cerebral cortex” value is recorded as “mild”; the “neuronal degeneration and gliosis, hippocampus” value was “mild”. For the same compound, the “TNF-α expression in cerebral cortex (immunohistochemistry)” value in test [4] is listed as “weak”.
